# Measurements taken from patent US8258114B2, “Modulation of glucose-6-phosphatase translocase expression” (Isis Pharmaceuticals, Inc., priority 2004, dated 2012).
# Oligonucleotides are written 5' to 3', each unit as a sugar letter and its base; * is a phosphorothioate linkage, no mark a phosphodiester; rarer units and linkages stand in square brackets, end groups in braces. Plain capitals give the bases only. e = 2'-O-(2-methoxyethyl) (MOE); [5mC] = 5-methylcytosine; d = 2'-deoxy (DNA)
# Tested on: mouse glucose-6-phosphatase translocase mRNA
# Experiment: Antisense inhibition of mouse glucose-6-phosphatase translocase mRNA in primary mouse hepatocytes, 50 nM (Table 5)
# Assay type: cell-based
# Details: 50 nM oligonucleotide, mRNA by real-time PCR, normalized with RIBOGREEN
# Description: Primary mouse hepatocytes were prepared from CD-1 mice purchased from Charles River Labs. Primary mouse hepatocytes were routinely cultured in Hepatocyte Attachment Media supplemented with 10% fetal bovine serum (Invitrogen Life Technologies, Carlsbad, Calif.), 250 nM dexamethasone, and 10 nM bovine insulin (Sigma-Aldrich, St. Louis, Mo.). Cells were seeded into 96-well plates (Falcon-Primaria #353872, BD Biosciences, Bedford, Mass.) at a density of approximately 4,000-6,000 cells/well for use in oligomeric compound transfection experiments.
# (§1) Quantitation of glucose 6-phosphatase translocase mRNA levels was accomplished by real-time quantitative PCR using the ABI PRISM™ 7600, 7700, or 7900 Sequence Detection System (PE-Applied Biosystems, Foster City, Calif.) according to manufacturer's instructions.
# (§2) Prior to quantitative PCR analysis, primer-probe sets specific to the target gene being measured were evaluated for their ability to be “multiplexed” with a GAPDH amplification reaction. After isolation the RNA is subjected to sequential reverse transcriptase (RT) reaction and real-time PCR, both of which are performed in the same well. RT and PCR reagents were obtained from Invitrogen Life Technologies (Carlsbad, Calif.). […] The RT reaction was carried out by incubation for 30 minutes at 48° C. Following a 10 minute incubation at 95° C. to activate the PLATINUM® Taq, 40 cycles of a two-step PCR protocol were carried out: 95° C. for 15 seconds (denaturation) followed by 60° C. for 1.5 minutes (annealing/extension).
# (§3) Gene target quantities obtained by RT, real-time PCR were normalized using either the expression level of GAPDH, a gene whose expression is constant, or by quantifying total RNA using RiboGreen™ (Molecular Probes, Inc. Eugene, Oreg.). GAPDH expression was quantified by RT, real-time PCR, by being run simultaneously with the target, multiplexing, or separately. Total RNA was quantified using RiboGreen™ RNA quantification reagent (Molecular Probes, Inc. Eugene, Oreg.).
# A series of oligomeric compounds was designed to target different regions of mouse glucose-6-phosphatase translocase, using published sequences cited in Table 1. All compounds in Table 5 are chimeric oligonucleotides (“gapmers”) 20 nucleotides in length, composed of a central “gap” region consisting of 10 2′-deoxynucleotides, which is flanked on both sides (5′ and 3′) by five-nucleotide “wings”. The wings are composed of 2′-O-(2-methoxyethyl) nucleotides, also known as 2′-MOE nucleotides. The internucleoside (backbone) linkages are phosphorothioate throughout the oligonucleotide. All cytidine residues are 5-methylcytidines. The compounds were analyzed for their effect on gene target mRNA levels by quantitative real-time PCR as described in other examples herein, using the following primer-probe set designed to hybridize to mouse glucose-6-phosphatase translocase: • forward primer: […] (SEQ ID NO: 66) • reverse primer: CCATCCCAGCCATCATGAG (SEQ ID NO: 67) and the PCR probe was: FAM-[…]-TAMRA (SEQ ID NO: 68) where FAM is the fluorescent reporter dye and TAMRA is the quencher dye. Mouse target gene quantities were normalized by quantifying total RNA using RIBOGREEN™.
# Data are from experiments in which primary mouse hepatocytes were treated with 50 nM of the antisense oligonucleotides of the present invention. A reduction in expression is expressed as percent inhibition in Table 5. If present, “N.D.” indicates “not determined”. The target regions to which these oligomeric compounds are inhibitory are herein referred to as “validated target segments.”
row,Sequence,% Inhib [%]
1,GCTTTATTCGATCTATACAA (eG*e[5mC]*eT*eT*eT*dA*dT*dT*d[5mC]*dG*dA*dT*d[5mC]*dT*dA*eT*eA*e[5mC]*eA*eA; antisense) [ISIS 149009],5
2,GGATATTTCGAAGCAAGAAG (eG*eG*eA*eT*eA*dT*dT*dT*d[5mC]*dG*dA*dA*dG*d[5mC]*dA*eA*eG*eA*eA*eG; antisense) [ISIS 148983],43
3,GGCACTGATGTAGGAGCTAC (eG*eG*e[5mC]*eA*e[5mC]*dT*dG*dA*dT*dG*dT*dA*dG*dG*dA*eG*e[5mC]*eT*eA*e[5mC]; antisense) [ISIS 148966],54
4,GGCAGAAACCACAGGCCATT (eG*eG*e[5mC]*eA*eG*dA*dA*dA*d[5mC]*d[5mC]*dA*d[5mC]*dA*dG*dG*e[5mC]*e[5mC]*eA*eT*eT; antisense) [ISIS 149000],56
5,GGCTGCTTGTGATGAGCCCC (eG*eG*e[5mC]*eT*eG*d[5mC]*dT*dT*dG*dT*dG*dA*dT*dG*dA*eG*e[5mC]*e[5mC]*e[5mC]*e[5mC]; antisense) [ISIS 148949],52
6,GGGACCTCATTAGCCACTGG (eG*eG*eG*eA*e[5mC]*d[5mC]*dT*d[5mC]*dA*dT*dT*dA*dG*d[5mC]*d[5mC]*eA*e[5mC]*eT*eG*eG; antisense) [ISIS 148993],55
7,GGGACTGAGGTATTGGCATC (eG*eG*eG*eA*e[5mC]*dT*dG*dA*dG*dG*dT*dA*dT*dT*dG*eG*e[5mC]*eA*eT*e[5mC]; antisense) [ISIS 149003],9
8,GGGTACGGCAGAAACCACAG (eG*eG*eG*eT*eA*d[5mC]*dG*dG*d[5mC]*dA*dG*dA*dA*dA*d[5mC]*e[5mC]*eA*e[5mC]*eA*eG; antisense) [ISIS 149001],42
9,GTGATGAGCCCCAAATCGTC (eG*eT*eG*eA*eT*dG*dA*dG*d[5mC]*d[5mC]*d[5mC]*d[5mC]*dA*dA*dA*eT*e[5mC]*eG*eT*e[5mC]; antisense) [ISIS 148948],52
10,GTGGAGACACAGAAACGTAA (eG*eT*eG*eG*eA*dG*dA*d[5mC]*dA*d[5mC]*dA*dG*dA*dA*dA*e[5mC]*eG*eT*eA*eA; antisense) [ISIS 148992],51
11,TACAGCAAGTCTTTACTCCG (eT*eA*e[5mC]*eA*eG*d[5mC]*dA*dA*dG*dT*d[5mC]*dT*dT*dT*dA*e[5mC]*eT*e[5mC]*e[5mC]*eG; antisense) [ISIS 148962],47
12,TACTCGGAAGAGATACGTGG (eT*eA*e[5mC]*eT*e[5mC]*dG*dG*dA*dA*dG*dA*dG*dA*dT*dA*e[5mC]*eG*eT*eG*eG; antisense) [ISIS 148974],8
13,TATAGGAGACACCCTGAATT (eT*eA*eT*eA*eG*dG*dA*dG*dA*d[5mC]*dA*d[5mC]*d[5mC]*d[5mC]*dT*eG*eA*eA*eT*eT; antisense) [ISIS 148996],−3
14,TATTGGCATCAATTTTGCCC (eT*eA*eT*eT*eG*dG*d[5mC]*dA*dT*d[5mC]*dA*dA*dT*dT*dT*eT*eG*e[5mC]*e[5mC]*e[5mC]; antisense) [ISIS 149002],22
15,TCACTCTCCCTTCTTGGATA (eT*e[5mC]*eA*e[5mC]*eT*d[5mC]*dT*d[5mC]*d[5mC]*d[5mC]*dT*dT*d[5mC]*dT*dT*eG*eG*eA*eT*eA; antisense) [ISIS 148984],60
16,TCATGAGAGTGGTGGACTCC (eT*e[5mC]*eA*eT*eG*dA*dG*dA*dG*dT*dG*dG*dT*dG*dG*eA*e[5mC]*eT*e[5mC]*e[5mC]; antisense) [ISIS 149005],27
17,TCATGCTGGTTGACAACACA (eT*e[5mC]*eA*eT*eG*d[5mC]*dT*dG*dG*dT*dT*dG*dA*d[5mC]*dA*eA*e[5mC]*eA*e[5mC]*eA; antisense) [ISIS 148955],36
18,TCCTCTCCTCCCTTAGGGAC (eT*e[5mC]*e[5mC]*eT*e[5mC]*dT*d[5mC]*d[5mC]*dT*d[5mC]*d[5mC]*d[5mC]*dT*dT*dA*eG*eG*eG*eA*e[5mC]; antisense) [ISIS 149004],42
19,TCGTCCTTGTCCAGAGCGAT (eT*e[5mC]*eG*eT*e[5mC]*d[5mC]*dT*dT*dG*dT*d[5mC]*d[5mC]*dA*dG*dA*eG*e[5mC]*eG*eA*eT; antisense) [ISIS 148946],70
20,TCTCTTTAGTGCCTGGATCT (eT*e[5mC]*eT*e[5mC]*eT*dT*dT*dA*dG*dT*dG*d[5mC]*d[5mC]*dT*dG*eG*eA*eT*e[5mC]*eT; antisense) [ISIS 148937],52
21,TGCCTGGATCTGCTGAGCTG (eT*eG*e[5mC]*e[5mC]*eT*dG*dG*dA*dT*d[5mC]*dT*dG*d[5mC]*dT*dG*eA*eG*e[5mC]*eT*eG; antisense) [ISIS 148936],39
22,TGTGCTCCAGCTATAGTGCT (eT*eG*eT*eG*e[5mC]*dT*d[5mC]*d[5mC]*dA*dG*d[5mC]*dT*dA*dT*dA*eG*eT*eG*e[5mC]*eT; antisense) [ISIS 148981],59

# Tested on: human glucose-6-phosphatase translocase mRNA
# Experiment: Antisense inhibition of human glucose-6-phosphatase translocase mRNA in HepG2 cells (Table 11)
# Assay type: cell-based
# Parameters: concentration or dose not given beside the values
# Details: LIPOFECTIN, mRNA by real-time PCR
# Description: The human hepatoblastoma cell line HepG2 was obtained from the American Type Culture Collection (Manassas, Va.). HepG2 cells were routinely cultured in Eagle's MEM supplemented with 10% fetal bovine serum, 1 mM non-essential amino acids, and 1 mM sodium pyruvate (Invitrogen Life Technologies, Carlsbad, Calif.). Cells were routinely passaged by trypsinization and dilution when they reached approximately 90% confluence. Multiwell culture plates are prepared for cell culture by coating with a 1:100 dilution of type 1 rat tail collagen (BD Biosciences, Bedford, Mass.) in phosphate-buffered saline. The collagen-containing plates were incubated at 37° C. for approximately 1 hour, after which the collagen was removed and the wells were washed twice with phosphate-buffered saline. Cells were seeded into 96-well plates (Falcon-Primaria #353872, BD Biosciences, Bedford, Mass.) at a density of approximately 8,000 cells/well for use in oligomeric compound transfection experiments.
# When cells reached 65-75% confluency, they were treated with oligonucleotide. Oligonucleotide was mixed with LIPOFECTIN™ Invitrogen Life Technologies, Carlsbad, Calif.) in Opti-MEM™-1 reduced serum medium (Invitrogen Life Technologies, Carlsbad, Calif.) to achieve the desired concentration of oligonucleotide and a LIPOFECTIN™ concentration of 2.5 or 3 μg/mL per 100 nM oligonucleotide. This transfection mixture was incubated at room temperature for approximately 0.5 hours. For cells grown in 96-well plates, wells were washed once with 100 μL OPTI-MEM™-1 and then treated with 130 μL of the transfection mixture. Cells grown in 24-well plates or other standard tissue culture plates are treated similarly, using appropriate volumes of medium and oligonucleotide. Cells are treated and data are obtained in duplicate or triplicate. After approximately 4-7 hours of treatment at 37° C., the medium containing the transfection mixture was replaced with fresh culture medium. Cells were harvested 16-24 hours after oligonucleotide treatment.
# as §1, §2, §3
# A series of oligomeric compounds was designed to target different regions of human glucose-6-phosphatase translocase, using published sequences cited in Table 1. All compounds in Table 4 are chimeric oligonucleotides (“gapmers”) 20 nucleotides in length, composed of a central “gap” region consisting of 10 2′-deoxynucleotides, which is flanked on both sides (5′ and 3′) by five-nucleotide “wings”. The wings are composed of 2′-O-(2-methoxyethyl) nucleotides, also known as 2′-MOE nucleotides. […]
row,Sequence,% Inhib [%]
1,ACAACCACACACAGTGCCCC (eA*e[5mC]*eA*eA*e[5mC]*d[5mC]*dA*d[5mC]*dA*d[5mC]*dA*d[5mC]*dA*dG*dT*eG*e[5mC]*e[5mC]*e[5mC]*e[5mC]; antisense) [ISIS 359519],53
2,ACAGCTCCCAATACCAGGAT (eA*e[5mC]*eA*eG*e[5mC]*dT*d[5mC]*d[5mC]*d[5mC]*dA*dA*dT*dA*d[5mC]*d[5mC]*eA*eG*eG*eA*eT; antisense) [ISIS 359537],93
3,ACATCAGCAGGTTCATTGTG (eA*e[5mC]*eA*eT*e[5mC]*dA*dG*d[5mC]*dA*dG*dG*dT*dT*d[5mC]*dA*eT*eT*eG*eT*eG; antisense) [ISIS 359523],43
4,ACCAAGTGCCAAACTGAGAT (eA*e[5mC]*e[5mC]*eA*eA*dG*dT*dG*d[5mC]*d[5mC]*dA*dA*dA*d[5mC]*dT*eG*eA*eG*eA*eT; antisense) [ISIS 359509],24
5,ACTCGGCCCATCTTGGTGCG (eA*e[5mC]*eT*e[5mC]*eG*dG*d[5mC]*d[5mC]*d[5mC]*dA*dT*d[5mC]*dT*dT*dG*eG*eT*eG*e[5mC]*eG; antisense) [ISIS 359548],96
